Source: patent US8093286B2, “Methods for treatment with bucindolol based on genetic targeting” (The Regents of the University of Colorado, a body corporate, priority 2004, dated 2012)
Where a name gives a salt, the structure may show the parent alone.

Assays:
β1-Gly389 receptor = molecular target: T1, β1-Gly389 receptor (Homo sapiens, UniProt P08588); test: 125I-cyanopindolol competition binding in transfected cells; conditions: 125I-CYP competition, n=3; read-out: affinity for bucindolol (pKi) (converted)
T1 construct: expressed in transfected cells
T1 sequence (P08588 whole entry): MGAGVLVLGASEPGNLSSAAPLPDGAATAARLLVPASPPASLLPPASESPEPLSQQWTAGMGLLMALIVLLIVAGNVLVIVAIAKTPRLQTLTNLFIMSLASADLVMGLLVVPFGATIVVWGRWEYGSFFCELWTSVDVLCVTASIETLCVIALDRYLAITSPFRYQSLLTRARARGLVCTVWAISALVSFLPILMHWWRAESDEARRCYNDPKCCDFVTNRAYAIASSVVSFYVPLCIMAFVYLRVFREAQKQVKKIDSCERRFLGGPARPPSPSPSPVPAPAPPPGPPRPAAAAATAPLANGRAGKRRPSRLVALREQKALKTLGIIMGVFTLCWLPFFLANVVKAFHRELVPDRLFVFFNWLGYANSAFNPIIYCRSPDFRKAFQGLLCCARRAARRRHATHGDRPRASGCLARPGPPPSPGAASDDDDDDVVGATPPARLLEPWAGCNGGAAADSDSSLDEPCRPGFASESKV
Description: (§1) Chinese hamster fibroblasts were stably transfected using constructs previously described so as to separately express the human β1-Arg389 or β1-Gly389 receptors. β1AR expression, and affinity for bucindolol, were determined by radioligand binding studies with ^125I-cyanopindolol (125I-CYP), using 1 μM propranolol to define nonspecific binding as described. Whole cell cAMP accumulation studies were carried out by the [^3H]-adenine method using two lines with equivalent expression levels of the two receptors as indicated. Attached cells were exposed to vehicle (basal), 10 μM norepinephrine or 10 uM norepinephrine with the indicated concentrations of bucindolol for 15 min at 37° C.

β1-Arg389 receptor = molecular target: T2, β1-Arg389 receptor (Homo sapiens, UniProt P08588, G389R); test: as above; conditions: 125I-CYP competition, n=3; read-out: affinity for bucindolol (pKi) (converted)
T2 construct: expressed in transfected cells
T2 sequence (P08588 whole entry G389R): as the sequence (P08588 whole entry) above, with G389R counted along it
Description: as §1

Compound: CC(C)(Cc1c[nH]c2ccccc12)NCC(O)COc1ccccc1C#N (centres unmarked) [bucindolol, (2-{2-hydroxy-3{{2-(3-indolyl)-1,1-dimethylethyl}amino}propoxy}-benzonitrile hydrochloride)]
- Ki (β1-Gly389 receptor): 0.251 nM
- Ki (β1-Arg389 receptor): 0.251 nM
